# Reference: PMC2783590 (Nature chemical biology, 2009)
# Assays:
# [1] = test system: myr-HA-asAkt1-KD or myr-HA-asAkt2-KD (Thr308, Ser473) phosphorylation; assay: HEK293 cells expressing kinase dead; assay type: cell-based, Human; settings: 30 min, 2.5 µM PrINZ or 10 µM 3-IB-PP1
# [2] = test system: Akt (Thr308, Ser473) and GSK3β (Ser9) phosphorylation; assay type: cell-based, Human; settings: serum-starved HEK293, 20 min drug then 50 ng/ml IGF-1 10 min
# [3] = test system: GSK3β (Ser9) phosphorylation; assay: HEK293 cells transfected with myr-HA-asAkt1, immunoblotting; assay type: cell-based, Human; settings: myr-HA-asAkt1, 30 min, various concentrations
# [4] = test system: HA-asAkt1 (Thr308, Ser473) phosphorylation; assay: HEK293 cells transfected with HA-asAkt1, immunoblotting; assay type: cell-based, Human; settings: 30 min, serially diluted inhibitor
# MiaPaCa-2 tumor = settings: MiaPaCa-2 xenograft; cited from earlier work
# [5] = test system: Akt membrane localization; assay: Immunofluorescence of Akt in untransfected HEK293 cells; assay type: cell-based, Human
# 3T3-Akt1 tumor = settings: 3T3-Akt1 xenograft; cited from earlier work
# PC-3 tumor = settings: PC-3 xenograft; cited from earlier work
# [6] = test system: HA-asAkt1/2/3 (Thr308, Ser473) phosphorylation; assay type: cell-based, Human; settings: then 2.5 µM PrINZ 30 min; for hyperphosphorylation induced by PrINZ (Thr308 and Ser473): pre-treatment 10 min; for PrINZ induced Thr308 phosphorylation / PrINZ induced hyperphosphorylation at Ser473: pre-treatment 10 min (10 µM BX-795, 2.5 µM PP242)
# 220 purified kinases = assay: SelectScreen profiling, whole panel; assay type: biochemical; settings: 1 µM
# [7] = test system: Akt (Thr308) and rpS6 (Ser240/244) phosphorylation in L6 cells; assay: Insulin stimulated L6 cells, immunoblotting; assay type: cell-based; settings: serum-starved, 20 min drug then 100 nM insulin 10 min
# Akt = settings: cited from earlier work
# [8] = test system: myr-HA-asAkt1 (Thr308, Ser473) phosphorylation; assay type: cell-based, Human; settings: 2.5 µM PIK90 10 min, then 2.5 µM PrINZ 30 min
# myr-HA-asAkt2 = myr-HA-asAkt2 (Homo sapiens, UniProt P31751, M229G); assay: In vitro IP kinase assay for Akt variants; assay type: biochemical; settings: myr-HA-asAkt2 expressed in HEK293T cells, immunoprecipitated; 50 µM ATP
# myr-HA-wtAkt1 = myr-HA-wtAkt1 (Homo sapiens, UniProt P31749); assay: In vitro IP kinase assay for Akt variants; assay type: biochemical; settings: myr-HA-wtAkt1 expressed in HEK293T cells, immunoprecipitated; 50 µM ATP
# myr-HA-asAkt3 = myr-HA-asAkt3 (Homo sapiens, UniProt Q9Y243, M225G); assay: In vitro IP kinase assay for Akt variants; assay type: biochemical; settings: myr-HA-asAkt3 expressed in HEK293T cells, immunoprecipitated; 50 µM ATP
# myr-HA-asAkt1 = myr-HA-asAkt1 (Homo sapiens, UniProt P31749, M227G); assay: In vitro IP kinase assay for Akt variants; assay type: biochemical; settings: myr-HA-asAkt1 expressed in HEK293T cells, immunoprecipitated; 50 µM ATP
# myr-HA-wtAkt3 = myr-HA-wtAkt3 (Homo sapiens, UniProt Q9Y243); assay: In vitro IP kinase assay for Akt variants; assay type: biochemical; settings: myr-HA-wtAkt3 expressed in HEK293T cells, immunoprecipitated; 50 µM ATP
# [9] = test system: HA-asAkt1 and flag-wtAkt1 (Thr308, Ser473) phosphorylation; assay type: cell-based, Human; settings: 30 min, various concentrations
# myr-HA-wtAkt2 = myr-HA-wtAkt2 (Homo sapiens, UniProt P31751); assay: In vitro IP kinase assay for Akt variants; assay type: biochemical; settings: myr-HA-wtAkt2 expressed in HEK293T cells, immunoprecipitated; 50 µM ATP
# Chain of myr-HA-wtAkt2 (P31751 whole entry): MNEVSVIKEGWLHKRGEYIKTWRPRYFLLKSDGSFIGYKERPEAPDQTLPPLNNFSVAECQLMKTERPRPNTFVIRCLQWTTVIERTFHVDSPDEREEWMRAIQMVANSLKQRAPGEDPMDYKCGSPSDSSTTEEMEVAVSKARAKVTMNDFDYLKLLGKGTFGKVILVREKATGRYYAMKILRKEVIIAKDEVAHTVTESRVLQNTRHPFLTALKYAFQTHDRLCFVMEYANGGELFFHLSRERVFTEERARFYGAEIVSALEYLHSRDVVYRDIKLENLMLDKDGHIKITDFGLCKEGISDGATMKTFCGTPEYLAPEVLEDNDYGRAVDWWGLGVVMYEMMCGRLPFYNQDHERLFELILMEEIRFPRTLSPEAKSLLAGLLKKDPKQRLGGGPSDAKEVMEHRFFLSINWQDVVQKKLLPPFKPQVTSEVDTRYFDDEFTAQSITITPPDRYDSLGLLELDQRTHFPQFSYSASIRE
# Chain of myr-HA-asAkt2 (P31751 whole entry M229G): as the sequence (P31751 whole entry) above, with M229G counted along it
# Chain of myr-HA-asAkt3 (Q9Y243 whole entry M225G): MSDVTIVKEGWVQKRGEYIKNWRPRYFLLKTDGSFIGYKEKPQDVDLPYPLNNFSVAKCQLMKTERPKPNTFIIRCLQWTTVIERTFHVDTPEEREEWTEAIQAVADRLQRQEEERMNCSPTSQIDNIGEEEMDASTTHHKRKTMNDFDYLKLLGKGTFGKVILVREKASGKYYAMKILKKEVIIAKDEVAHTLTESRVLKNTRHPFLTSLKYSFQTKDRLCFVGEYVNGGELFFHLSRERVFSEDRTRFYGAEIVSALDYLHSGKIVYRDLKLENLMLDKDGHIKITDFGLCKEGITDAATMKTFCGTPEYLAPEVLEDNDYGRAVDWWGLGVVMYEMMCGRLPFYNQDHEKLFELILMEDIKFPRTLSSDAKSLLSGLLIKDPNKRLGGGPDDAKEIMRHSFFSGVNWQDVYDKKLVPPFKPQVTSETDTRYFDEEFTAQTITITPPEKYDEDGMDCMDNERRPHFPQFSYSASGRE
# Chain of myr-HA-asAkt1 (P31749 whole entry M227G): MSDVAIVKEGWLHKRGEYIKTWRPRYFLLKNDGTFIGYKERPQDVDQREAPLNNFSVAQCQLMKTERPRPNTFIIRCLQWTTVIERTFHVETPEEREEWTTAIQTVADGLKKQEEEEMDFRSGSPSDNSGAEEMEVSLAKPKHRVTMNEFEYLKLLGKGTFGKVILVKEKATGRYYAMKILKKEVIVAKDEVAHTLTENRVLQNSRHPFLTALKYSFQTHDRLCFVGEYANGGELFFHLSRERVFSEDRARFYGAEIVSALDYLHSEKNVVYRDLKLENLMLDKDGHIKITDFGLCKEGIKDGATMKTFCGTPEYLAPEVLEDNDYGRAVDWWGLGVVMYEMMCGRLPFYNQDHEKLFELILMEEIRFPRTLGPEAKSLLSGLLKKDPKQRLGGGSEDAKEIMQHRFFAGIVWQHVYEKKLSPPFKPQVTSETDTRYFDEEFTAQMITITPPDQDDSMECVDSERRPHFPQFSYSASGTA
# Chain of myr-HA-wtAkt3 (Q9Y243 whole entry): as the sequence (Q9Y243 whole entry M225G) above, with G225M counted along it
# Chain of myr-HA-wtAkt1 (P31749 whole entry): as the sequence (P31749 whole entry M227G) above, with G227M counted along it
compound,measurement,setting,value
CC(C)(C)n1nc(Cc2cccc(I)c2)c2c(N)ncnc21 [3-IB-PP1],hyperphosphorylation on Thr308 and Ser473 of kinase dead mutants,[1],induced striking hyperphosphorylation
same,Akt phosphorylation at Thr308 and Ser473,[2],unperturbed
same,phosphorylation on GSK3β at Ser9,[2],unperturbed
same,phosphorylation level of Ser9 on GSK3β,[3],decreased
same,HA-asAkt1 hyperphosphorylation,[4],induced
Cc1n[nH]c2ccc(-c3cncc(OC[C@@H](N)Cc4c[nH]c5ccccc45)c3)cc12 [A-443654],tumor growth,MiaPaCa-2 tumor,inhibit the growth
same,location of Akt,"[5]; 2.5 µM, 15 min, no growth factor stimulation",translocation of Akt to the plasma membrane
same,Akt phosphorylation at Thr308 and Ser473,[2],induced
same,phosphorylation on GSK3β at Ser9,[2],potently inhibited
same,tumor growth,3T3-Akt1 tumor,inhibit the growth
same,tumor growth,PC-3 tumor,inhibit the growth
"O=c1[nH]c2ccccc2n1C1CCN(Cc2ccc(-c3nc4cc5nc[nH]c5cc4nc3-c3ccccc3)cc2)CC1 [Akti-1,2]",hyperphosphorylation induced by PrINZ (Thr308 and Ser473),[6],dose-dependent inhibition
O=C(NCCCNc1nc(Nc2cccc(NC(=O)N3CCCC3)c2)ncc1I)c1cccs1 [BX-795],selectivity in panel of 220 kinases,220 purified kinases,selective for only PDK1 within the PI3K-mTORC1 pathway
same,PrINZ induced Thr308 phosphorylation,[6],significant decrease
same,PrINZ induced hyperphosphorylation at Ser473,[6],reduced
COc1ccccc1N1CCN(c2ncnc3[nH]nc(Br)c23)CC1 [DG2],Akt phosphorylation at Thr308 and Ser473,[7],does not induce
"CCn1c(-c2nonc2N)nc2c(C#CC(C)(C)O)ncc(OC[C@H]3CCCNC3)c21 [GSK690693, 4-(2-(4-amino-1,2,5-oxadiazol-3-yl)-1-ethyl-7-{[(3S)-3-piperidinylmethyl]oxy}-1H-imidazo[4,5-c]pyridin-4-yl)-2-methyl-3-butyn-2-ol]",Akt hyperphosphorylation,Akt,induces Akt hyperphosphorylation
COc1ccc2c(c1OC)N=C(NC(=O)c1cccnc1)N1CCN=C21 [PIK90],A-443654 induced translocation and Thr308 phosphorylation of Akt,[5]; 2.5 µM PIK90 10 min before 2.5 µM A-443654 15 min,inhibited
same,hyperphosphorylation on myr-HA-asAkt1,[8],not inhibited
same,hyperphosphorylation induced by PrINZ (Thr308 and Ser473),[6],significantly attenuated
CC(C)n1nc(-c2cc3cc(O)ccc3[nH]2)c2c(N)ncnc21 [PP242],PrINZ induced Thr308 phosphorylation,[6],unaffected
same,PrINZ induced hyperphosphorylation at Ser473,[6],completely inhibited
CCCc1cc(-c2cncc(OC[C@@H](N)Cc3c[nH]c4ccccc34)c2)cc2c(C)n[nH]c12 [PrINZ],IC50 (nM) asAkt2,myr-HA-asAkt2,low nanomolar range
same,IC50 (nM) wtAkt1,myr-HA-wtAkt1,did not inhibit
same,IC50 (nM) asAkt3,myr-HA-asAkt3,low nanomolar range
same,IC50 (nM) asAkt1,myr-HA-asAkt1,low nanomolar range
same,IC50 (nM) wtAkt3,myr-HA-wtAkt3,did not inhibit
same,hyperphosphorylation on Thr308 and Ser473 of kinase dead mutants,[1],induced striking hyperphosphorylation
same,Akt phosphorylation at Thr308 and Ser473,[2],unperturbed
same,phosphorylation on GSK3β at Ser9,[2],unperturbed
same,phosphorylation level of Ser9 on GSK3β,[3],decreased
same,Thr308 and Ser473 phosphorylation after immunoprecipitation,[9],induced only on HA-asAkt1
same,HA-asAkt1 hyperphosphorylation,[4],induced
same,IC50 (nM) wtAkt2,myr-HA-wtAkt2,did not inhibit
